# Test results from ChEMBL document CHEMBL1201862, “PubChem BioAssay data set” (2004).
#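 Cultured in 96-well plates, cells were exposed to test compound for 48 hours across five concentrations. Here, GI50 denotes the concentration required for 50% inhibition of growth.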 Activity calls are given as the source filed them. Cut-off read from the data, not from the text of the source: active = GI50 up to about 1.1 µM and inactive = higher.
# Key:
# Experiment in all cases: NCI-60 cell line screen, 48 h
# [1] = tested on: A549
# [2] = tested on: SK-MEL-5
# [3] = tested on: UO-31
# [4] = tested on: OVCAR-3
# [5] = tested on: HCT-116
# [6] = tested on: NCI-H226
# [7] = tested on: OVCAR-8
# [8] = tested on: DMS-273
# [9] = tested on: SK-MEL-2
# [10] = tested on: M19-MEL
# [11] = tested on: OVCAR-4
# [12] = tested on: M14
# [13] = tested on: DLD-1
# [14] = tested on: DMS-114
# [15] = tested on: SF-539
# [16] = tested on: NCI-H460
# [17] = tested on: HCC 2998
# [18] = tested on: SF-295
# [19] = tested on: RPMI-8226
# [20] = tested on: LXFL 529
# [21] = tested on: LOX IMVI
# [22] = tested on: HT-29
# [23] = tested on: MOLT-4
# [24] = tested on: SF-268
# [25] = tested on: K562
# [26] = tested on: 786-0
# [27] = tested on: SW-620
# [28] = tested on: XF498
# [29] = tested on: HOP-62
# [30] = tested on: SR
# [31] = tested on: HCT-15
# [32] = tested on: U-251
# [33] = tested on: HOP-18
# [34] = tested on: RXF 631
# [35] = tested on: OVCAR-5
# [36] = tested on: A498
# [37] = tested on: IGROV-1
# [38] = tested on: SK-OV-3
# [39] = tested on: UACC-257
# [40] = tested on: ACHN
# [41] = tested on: CAKI-1
# [42] = tested on: NCI-H522
# [43] = tested on: Malme-3M
# [44] = tested on: EKVX
# [45] = tested on: SNB-78
# [46] = tested on: CCRF-CEM
# [47] = tested on: SNB-19
# [48] = tested on: COLO 205
# [49] = tested on: NCI-H23
# [50] = tested on: KM12
# [51] = tested on: SN12C
# [52] = tested on: TK-10
# [53] = tested on: SK-MEL-28
# [54] = tested on: HL-60
# [55] = tested on: HOP-92
# [56] = tested on: RXF 393
# [57] = tested on: SNB-75
# [58] = tested on: UACC-62
# [59] = tested on: KM-20L2
structure (smiles),measurement,setting,value
COC(=O)C(=O)C(C(=O)C(=O)Nc1cc([N+](=O)[O-])ccc1[N+](=O)[O-])c1nc2ccc(C(=O)c3ccccc3)cc2nc1O (stereo not given),GI50,[1],43.8 µM (inactive)
same,GI50,[2],18.3 µM (inactive)
same,GI50,[3],17.4 µM (inactive)
same,GI50,[4],39.2 µM (inactive)
same,GI50,[5],40.6 µM (inactive)
same,GI50,[6],25.4 µM (inactive)
same,GI50,[7],26.9 µM (inactive)
same,GI50,[8],22.4 µM (inactive)
same,GI50,[9],37.2 µM (inactive)
same,GI50,[10],28.4 µM (inactive)
same,GI50,[11],49.9 µM (inactive)
same,GI50,[12],33.1 µM (inactive)
same,GI50,[13],52.2 µM (inactive)
same,GI50,[14],23.2 µM (inactive)
same,GI50,[15],35.2 µM (inactive)
same,GI50,[16],35.4 µM (inactive)
same,GI50,[17],> 100 µM (inactive)
same,GI50,[18],31 µM (inactive)
same,GI50,[19],20.1 µM (inactive)
same,GI50,[20],23.4 µM (inactive)
same,GI50,[21],19.9 µM (inactive)
same,GI50,[22],34 µM (inactive)
same,GI50,[23],18.1 µM (inactive)
same,GI50,[24],47.6 µM (inactive)
same,GI50,[25],21.3 µM (inactive)
same,GI50,[26],95.3 µM (inactive)
same,GI50,[27],28.4 µM (inactive)
same,GI50,[28],3.36 µM (inactive)
same,GI50,[29],44.5 µM (inactive)
same,GI50,[30],21.7 µM (inactive)
same,GI50,[31],56.5 µM
same,GI50,[32],33.4 µM (inactive)
same,GI50,[33],8.02 µM (inactive)
same,GI50,[34],49.3 µM (inactive)
same,GI50,[35],20.7 µM (inactive)
same,GI50,[36],20.9 µM (inactive)
same,GI50,[37],33.6 µM (inactive)
same,GI50,[38],34.2 µM (inactive)
same,GI50,[39],34.3 µM (inactive)
same,GI50,[40],34.8 µM (inactive)
same,GI50,[41],19.3 µM (inactive)
same,GI50,[42],26.7 µM (inactive)
same,GI50,[43],61.4 µM (inactive)
same,GI50,[44],39.3 µM (inactive)
same,GI50,[45],19.2 µM (inactive)
same,GI50,[46],25.2 µM (inactive)
same,GI50,[47],50.4 µM (inactive)
same,GI50,[48],32.6 µM (inactive)
same,GI50,[49],25.2 µM (inactive)
same,GI50,[50],28.9 µM (inactive)
same,GI50,[51],44.2 µM (inactive)
Cc1cc(CC(=O)NCCO)n(CCO)c(=O)c1,GI50,[1],> 100 µM (inactive)
same,GI50,[2],> 100 µM (inactive)
same,GI50,[3],> 100 µM (inactive)
same,GI50,[4],> 100 µM (inactive)
same,GI50,[5],> 100 µM (inactive)
same,GI50,[52],> 100 µM (inactive)
same,GI50,[7],> 100 µM (inactive)
same,GI50,[53],> 100 µM (inactive)
same,GI50,[8],> 100 µM (inactive)
same,GI50,[54],> 100 µM (inactive)
same,GI50,[10],> 100 µM (inactive)
same,GI50,[55],> 100 µM (inactive)
same,GI50,[11],> 100 µM (inactive)
same,GI50,[12],> 100 µM (inactive)
same,GI50,[13],> 100 µM (inactive)
same,GI50,[14],> 100 µM (inactive)
same,GI50,[15],> 100 µM (inactive)
same,GI50,[16],> 100 µM (inactive)
same,GI50,[17],> 100 µM (inactive)
same,GI50,[18],> 100 µM (inactive)
same,GI50,[20],> 100 µM (inactive)
same,GI50,[21],> 100 µM (inactive)
same,GI50,[22],> 100 µM (inactive)
same,GI50,[23],> 100 µM (inactive)
same,GI50,[24],> 100 µM (inactive)
same,GI50,[25],> 100 µM (inactive)
same,GI50,[26],> 100 µM (inactive)
same,GI50,[56],> 100 µM (inactive)
same,GI50,[27],> 100 µM (inactive)
same,GI50,[57],84.1 µM (inactive)
same,GI50,[28],> 100 µM (inactive)
same,GI50,[29],> 100 µM (inactive)
same,GI50,[30],> 100 µM (inactive)
same,GI50,[32],> 100 µM (inactive)
same,GI50,[33],> 100 µM (inactive)
same,GI50,[34],> 100 µM (inactive)
same,GI50,[35],> 100 µM (inactive)
same,GI50,[37],> 100 µM (inactive)
same,GI50,[39],> 100 µM (inactive)
same,GI50,[40],> 100 µM (inactive)
same,GI50,[58],> 100 µM (inactive)
same,GI50,[41],> 100 µM (inactive)
same,GI50,[42],> 100 µM (inactive)
same,GI50,[43],> 100 µM (inactive)
same,GI50,[45],> 100 µM (inactive)
same,GI50,[46],> 100 µM (inactive)
same,GI50,[47],> 100 µM (inactive)
same,GI50,[48],> 100 µM (inactive)
same,GI50,[49],> 100 µM (inactive)
same,GI50,[50],> 100 µM (inactive)
same,GI50,[51],> 100 µM (inactive)
COc1cc2c(c(OC)c1OC)-c1ccc(SC)c(=O)cc1C(CC(=O)Oc1ccc([N+](=O)[O-])cc1)C2 (stereo not given),GI50,[1],0.123 µM (active)
same,GI50,[2],0.0726 µM (active)
same,GI50,[3],1.95 µM (inactive)
same,GI50,[4],0.0538 µM (active)
same,GI50,[52],4.8 µM (inactive)
same,GI50,[6],0.128 µM (active)
same,GI50,[53],0.19 µM (active)
same,GI50,[54],0.226 µM (active)
same,GI50,[9],0.336 µM (active)
same,GI50,[10],0.18 µM (active)
same,GI50,[55],0.762 µM (active)
same,GI50,[11],3.85 µM (inactive)
same,GI50,[12],0.0607 µM (active)
same,GI50,[14],0.0902 µM (active)
same,GI50,[17],0.119 µM (active)
same,GI50,[23],0.113 µM (active)
same,GI50,[24],0.137 µM (active)
same,GI50,[25],< 0.0444 µM (active)
same,GI50,[56],0.0331 µM (active)
same,GI50,[57],0.286 µM (active)
same,GI50,[59],0.0476 µM (active)
same,GI50,[28],0.0873 µM (active)
same,GI50,[29],4.44 µM (inactive)
same,GI50,[31],0.78 µM
same,GI50,[33],> 33.5 µM (inactive)
same,GI50,[34],< 0.01 µM (active)
same,GI50,[35],6.1 µM (inactive)
same,GI50,[36],0.0469 µM (active)
same,GI50,[37],0.344 µM (active)
same,GI50,[38],0.0207 µM (active)
same,GI50,[39],0.486 µM (active)
same,GI50,[41],0.207 µM (active)
same,GI50,[42],0.0551 µM (active)
same,GI50,[44],7.29 µM (inactive)
same,GI50,[45],0.044 µM (active)
same,GI50,[46],0.0792 µM (active)
same,GI50,[47],1.34 µM (inactive)
same,GI50,[49],0.132 µM (active)
